The compounds below were run against Alpha-glucosidase MAL12 (Saccharomyces cerevisiae (strain ATCC 204508 / S288c), UniProt P53341) (assay: Baker's Yeast α-Glucosidase Inhibition Assay). Settings: pH 6.8; 37 °C.
Experimental: The enzyme inhibition was evaluated according to the method previously reported by Zawawi et al. [Zawawi et al., Bioorg. Chem., 23:3119] with slight modification. Various concentration of test compounds (10 μL) were dissolved in DMSO (ranging from 200 to 6.25 μg/mL) and premixed with 95 μL of 50 mM phosphate buffer (pH 6.8). Then, 25 μL of enzyme (0.0625 U/mL) in phosphate buffer saline was added into each well and the plate was incubated at 37 °C for 10 min. Afterward, 25 μl of PNPG in phosphate buffer saline (5 mM) were added and pre-read of the plate was taken by using a microplate reader (Spectrostar Nano BMG Labtech, Germany). The reaction mixture was then incubated at 37 °C for 30 min and change in absorbance at 405 nm was monitored up to 30 min. For negative control, the test samples were replaced with 10 μL of DMSO and acarbose was used as positive control. All experiments were triplicated and the results were expressed as the mean ± S.E.M of three determinations.

Sequence of Alpha-glucosidase MAL12 (P53341 whole entry): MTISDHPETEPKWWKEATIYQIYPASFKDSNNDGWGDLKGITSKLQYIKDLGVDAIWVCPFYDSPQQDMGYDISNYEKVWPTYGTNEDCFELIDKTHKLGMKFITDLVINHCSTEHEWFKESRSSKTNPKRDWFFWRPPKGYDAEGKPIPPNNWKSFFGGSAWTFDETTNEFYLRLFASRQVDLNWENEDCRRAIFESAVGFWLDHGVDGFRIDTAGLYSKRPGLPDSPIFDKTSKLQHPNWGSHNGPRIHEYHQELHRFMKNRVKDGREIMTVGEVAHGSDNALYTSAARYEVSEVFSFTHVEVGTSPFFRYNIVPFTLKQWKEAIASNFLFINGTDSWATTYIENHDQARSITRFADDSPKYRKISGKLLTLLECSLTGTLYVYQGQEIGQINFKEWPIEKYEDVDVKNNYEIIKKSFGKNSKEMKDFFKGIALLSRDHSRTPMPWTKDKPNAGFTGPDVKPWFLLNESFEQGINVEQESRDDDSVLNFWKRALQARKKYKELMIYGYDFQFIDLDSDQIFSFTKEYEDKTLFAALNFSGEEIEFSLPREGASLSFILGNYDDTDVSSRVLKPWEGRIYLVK

IC50	Structure (SMILES)
346 µM	COc1ccccc1NC(=S)NNC(=O)c1ccc(-c2nc3cc(C)c(C)cc3[nH]2)cc1 [2-(4-(5,6-Dimethyl-1H-benzo[d]imidazol-2-yl)benzoyl)-N-(2-methoxyphenyl)hydrazinecarbothioamide (4)]
247 µM	Cc1cc2nc(-c3ccc(C(=O)NNC(=S)Nc4cccc(F)c4)cc3)[nH]c2cc1C [2-(4-(5,6-Dimethyl-1H-benzo[d]imidazol-2-yl)benzoyl)-N-(3-fluorophenyl)hydrazinecarbothioamide (7)]
71.8 µM	COc1cccc(NC(=S)NNC(=O)c2ccc(-c3nc4cc(C)c(C)cc4[nH]3)cc2)c1 [2-(4-(5,6-Dimethyl-1H-benzo[d]imidazol-2-yl)benzoyl)-N-(3-methoxyphenyl)hydrazinecarbothioamide (8)]
117 µM	Cc1cc2nc(-c3ccc(C(=O)NNC(=S)Nc4cccc([N+](=O)[O-])c4)cc3)[nH]c2cc1C [2-(4-(5,6-Dimethyl-1H-benzo[d]imidazol-2-yl)benzoyl)-N-(3-nitrophenyl)hydrazinecarbothioamide (9)]
163 µM	Cc1cc2nc(-c3ccc(C(=O)NNC(=S)Nc4ccc(C(F)(F)F)cc4)cc3)[nH]c2cc1C [2-(4-(5,6-Dimethyl-1H-benzo[d]imidazol-2-yl)benzoyl)-N-(4(trifluoromethyl)phenyl)hydrazinecarbothioamide (15)]
277 µM	Cc1cc2nc(-c3ccc(C(=O)NNC(=S)Nc4ccc(F)cc4)cc3)[nH]c2cc1C [2-(4-(5,6-Dimethyl-1H-benzo[d]imidazol-2-yl)benzoyl)-N-(4-fluorophenyl)hydrazinecarbothioamide (12)]
305 µM	COc1ccc(NC(=S)NNC(=O)c2ccc(-c3nc4cc(C)c(C)cc4[nH]3)cc2)cc1 [2-(4-(5,6-Dimethyl-1H-benzo[d]imidazol-2-yl)benzoyl)-N-(4-methoxyphenyl)hydrazinecarbothioamide (13)]
35.8 µM	Cc1cc2nc(-c3ccc(C(=O)NNC(=S)Nc4ccc([N+](=O)[O-])cc4)cc3)[nH]c2cc1C [2-(4-(5,6-Dimethyl-1H-benzo[d]imidazol-2-yl)benzoyl)-N-(4-nitrophenyl)hydrazinecarbothioamide (14)]
219 µM	Cc1cccc(NC(=S)NNC(=O)c2ccc(-c3nc4cc(C)c(C)cc4[nH]3)cc2)c1 [2-(4-(5,6-Dimethyl-1H-benzo[d]imidazol-2-yl)benzoyl)-N-(m-tolyl)hydrazinecarbothioamide (16)]
298 µM	Cc1ccc(NC(=S)NNC(=O)c2ccc(-c3nc4cc(C)c(C)cc4[nH]3)cc2)cc1 [2-(4-(5,6-Dimethyl-1H-benzo[d]imidazol-2-yl)benzoyl)-N-(p-tolyl)hydrazinecarbothioamide (17)]
231 µM	Cc1cc2nc(-c3ccc(C(=O)NNC(=S)Nc4ccccc4F)cc3)[nH]c2cc1C [2-(4-(5,6-dimethyl-1H-benzo[d]imidazol-2-yl)benzoyl)-N-(2-fluorophenyl)hydrazinecarbothioamide (3)]
129 µM	Cc1cc2nc(-c3ccc(C(=O)NNC(=S)Nc4ccccc4Br)cc3)[nH]c2cc1C [N-(2-bromophenyl)-2-(4-(5,6-dimethyl-1H-benzo[d]imidazol-2-yl)benzoyl)hydrazinecarbothioamide (1)]
284 µM	Cc1cc2nc(-c3ccc(C(=O)NNC(=S)Nc4ccccc4Cl)cc3)[nH]c2cc1C [N-(2-chlorophenyl)-2-(4-(5,6-dimethyl-1H-benzo[d]imidazol-2-yl)benzoyl)hydrazinecarbothioamide (2)]
61.9 µM	Cc1cc2nc(-c3ccc(C(=O)NNC(=S)Nc4ccc(Cl)c(Cl)c4)cc3)[nH]c2cc1C [N-(3,4-dichlorophenyl)-2-(4-(5,6-dimethyl-1H-benzo[d]imidazol-2-yl)benzoyl)hydrazinecarbothioamide (5)]
178 µM	Cc1cc2nc(-c3ccc(C(=O)NNC(=S)Nc4cccc(Br)c4)cc3)[nH]c2cc1C [N-(3-bromophenyl)-2-(4-(5,6-dimethyl-1H-benzo[d]imidazol-2-yl)benzoyl)hydrazinecarbothioamide (6)]
50.6 µM	Cc1cc2nc(-c3ccc(C(=O)NNC(=S)Nc4ccc(Br)cc4)cc3)[nH]c2cc1C [N-(4-bromophenyl)-2-(4-(5,6-dimethyl-1H-benzo[d]imidazol-2-yl)benzoyl)hydrazinecarbothioamide (10)]
187 µM	Cc1cc2nc(-c3ccc(C(=O)NNC(=S)Nc4ccc(Cl)cc4)cc3)[nH]c2cc1C [N-(4-chlorophenyl)-2-(4-(5,6-dimethyl-1H-benzo[d]imidazol-2-yl)benzoyl)hydrazinecarbothioamide (11)]
